# Data as given in article PMC4890880 (ACS infectious diseases, 2016).
# Like-named read-outs stand apart in the source and are kept apart here.
# Key:
# HepG2-A16-CD81EGFP cells = conditions: for IC50: read-out: Tox_IC50, HepG2 cytotoxicity
# [1] = test system: Plasmodium berghei (Pb-Luc) exoerythrocytic-stage parasites; conditions: for IC50: read-out: PbLuc_IC50
# [2] = 2nd round, maximal inhibition in dose series
# [3] = sheet 2nd round, maximal inhibition in dose response
# [4] = first series, fraction of control
# [5] = second series, fraction of control
smiles,measurement,setting,value
C[C@@H]1CN([C@@H](C)CO)C(=O)c2cccc(NC(=O)c3ccc(-c4nccs4)cc3)c2O[C@@H]1CN(C)C(=O)Nc1ccc(C(F)(F)F)cc1 [BRD-K43504903-001-01-1],IC50,"HepG2-A16-CD81EGFP cells; sheet ""2nd round""",> 10 µM
same,Tox_max_inhibition (%),"HepG2-A16-CD81EGFP cells; sheet ""2nd round""",21%
same,normalised signal at concentration 0.000508053 (first series),"[1]; concentration 0.000508053, first series",0.8756
same,normalised signal at concentration 0.000508053 (second series),"[1]; concentration 0.000508053, second series",0.7942
same,normalised signal at concentration 0.00152416 (first series),"[1]; concentration 0.00152416, first series",0.8514
same,normalised signal at concentration 0.00152416 (second series),"[1]; concentration 0.00152416, second series",0.7934
same,normalised signal at concentration 0.00457247 (first series),"[1]; concentration 0.00457247, first series",0.8815
same,normalised signal at concentration 0.00457247 (second series),"[1]; concentration 0.00457247, second series",0.6886
same,normalised signal at concentration 0.0137174 (first series),"[1]; concentration 0.0137174, first series",0.7217
same,normalised signal at concentration 0.0137174 (second series),"[1]; concentration 0.0137174, second series",0.708
same,normalised signal at concentration 0.0411523 (first series),"[1]; concentration 0.0411523, first series",0.6989
same,normalised signal at concentration 0.0411523 (second series),"[1]; concentration 0.0411523, second series",0.7835
same,normalised signal at concentration 0.123457 (first series),"[1]; concentration 0.123457, first series",0.7701
same,normalised signal at concentration 0.123457 (second series),"[1]; concentration 0.123457, second series",0.8493
same,normalised signal at concentration 0.37037 (first series),"[1]; concentration 0.37037, first series",0.9239
same,normalised signal at concentration 0.37037 (second series),"[1]; concentration 0.37037, second series",0.7292
same,normalised signal at concentration 1.11111 (first series),"[1]; concentration 1.11111, first series",0.7039
same,normalised signal at concentration 1.11111 (second series),"[1]; concentration 1.11111, second series",0.8779
same,normalised signal at concentration 3.33333 (first series),"[1]; concentration 3.33333, first series",0.8563
same,normalised signal at concentration 3.33333 (second series),"[1]; concentration 3.33333, second series",1.012
same,normalised signal at concentration 10 (first series),"[1]; concentration 10, first series of dose columns",0.4042
same,normalised signal at concentration 10 (second series),"[1]; concentration 10, second series of dose columns",0.5157
same,IC50,"[1]; sheet ""2nd round"", Broad compounds, dose response top concentration 10",> 10 µM
same,PbLuc_max_inhibition (%),"[1]; sheet ""2nd round""",60%
C[C@H]1CN([C@@H](C)CO)C(=O)c2cccc(NC(=O)c3ccc(-c4nccs4)cc3)c2O[C@@H]1CN(C)C(=O)Nc1ccc(C(F)(F)F)cc1 [BRD-K03390828-001-01-5],Tox_max_inhibition (%),HepG2-A16-CD81EGFP cells; [2],6.57%
same,IC50,"HepG2-A16-CD81EGFP cells; 2nd round, unit inferred",> 10 µM
same,PbLuc_max_inhibition (%),[1]; [2],34%
same,normalized signal at 0.000508053 (first series),"[1]; concentration 0.000508053, first replicate series, fraction of control",0.9377
same,normalized signal at 0.000508053 (second series),"[1]; concentration 0.000508053, second replicate series, fraction of control",0.6684
same,normalized signal at 0.00152416 (first series),"[1]; concentration 0.00152416, first replicate series, fraction of control",0.8855
same,normalized signal at 0.00152416 (second series),"[1]; concentration 0.00152416, second replicate series, fraction of control",0.8915
same,normalized signal at 0.00457247 (first series),"[1]; concentration 0.00457247, first replicate series, fraction of control",0.8808
same,normalized signal at 0.00457247 (second series),"[1]; concentration 0.00457247, second replicate series, fraction of control",0.7577
same,normalized signal at 0.0137174 (first series),"[1]; concentration 0.0137174, first replicate series, fraction of control",0.9989
same,normalized signal at 0.0137174 (second series),"[1]; concentration 0.0137174, second replicate series, fraction of control",0.749
same,normalized signal at 0.0411523 (first series),"[1]; concentration 0.0411523, first replicate series, fraction of control",0.8536
same,normalized signal at 0.0411523 (second series),"[1]; concentration 0.0411523, second replicate series, fraction of control",0.9352
same,normalized signal at 0.123457 (first series),"[1]; concentration 0.123457, first replicate series, fraction of control",0.9414
same,normalized signal at 0.123457 (second series),"[1]; concentration 0.123457, second replicate series, fraction of control",0.925
same,normalized signal at 0.37037 (first series),"[1]; concentration 0.37037, first replicate series, fraction of control",0.9548
same,normalized signal at 0.37037 (second series),"[1]; concentration 0.37037, second replicate series, fraction of control",0.6557
same,normalized signal at 1.11111 (first series),"[1]; concentration 1.11111, first replicate series, fraction of control",1.032
same,normalized signal at 1.11111 (second series),"[1]; concentration 1.11111, second replicate series, fraction of control",0.7805
same,normalized signal at 3.33333 (first series),"[1]; concentration 3.33333, first replicate series, fraction of control",1.162
same,normalized signal at 3.33333 (second series),"[1]; concentration 3.33333, second replicate series, fraction of control",0.8715
same,normalized signal at 10 (first series),"[1]; concentration 10, first replicate series, fraction of control",0.7935
same,normalized signal at 10 (second series),"[1]; concentration 10, second replicate series, fraction of control",0.8747
same,IC50,"[1]; 2nd round, Broad DOS compounds, unit not printed (dose series head 10 to 0.000508053)",> 10 µM
C[C@@H]1CN([C@@H](C)CO)C(=O)c2cccc(NC(=O)C3CC3)c2O[C@@H]1CN(C)C(=O)Nc1ccc(C(F)(F)F)cc1 [BRD-K19818397-001-01-8],IC50,HepG2-A16-CD81EGFP cells; sheet 2nd round,> 10 µM
same,Tox_max_inhibition (%),HepG2-A16-CD81EGFP cells; [3],16%
same,normalized signal at concentration 10,"[1]; first series of dose-response columns, fraction of control",1.071
same,normalized signal at concentration 0.000508053,[1]; [4],1.034
same,normalized signal at concentration 0.00152416,[1]; [4],0.8006
same,normalized signal at concentration 0.00457247,[1]; [4],1.0648
same,normalized signal at concentration 0.0137174,[1]; [4],1.106
same,normalized signal at concentration 0.0411523,[1]; [4],1.032
same,normalized signal at concentration 0.123457,[1]; [4],1.068
same,normalized signal at concentration 0.37037,[1]; [4],0.8949
same,normalized signal at concentration 1.11111,[1]; [4],0.9694
same,normalized signal at concentration 3.33333,[1]; [4],1.103
same,IC50,"[1]; sheet 2nd round, Broad compounds, dose response",> 10 µM
same,normalized signal at concentration 10,"[1]; second series of dose-response columns, fraction of control",1.03
same,normalized signal at concentration 0.000508053,[1]; [5],1.064
same,normalized signal at concentration 0.00152416,[1]; [5],1.02
same,normalized signal at concentration 0.00457247,[1]; [5],1.098
same,normalized signal at concentration 0.0137174,[1]; [5],0.9383
same,normalized signal at concentration 0.0411523,[1]; [5],0.9903
same,normalized signal at concentration 0.123457,[1]; [5],1.126
same,normalized signal at concentration 0.37037,[1]; [5],1.0101
same,normalized signal at concentration 1.11111,[1]; [5],1.172
same,normalized signal at concentration 3.33333,[1]; [5],1.008
same,PbLuc_max_inhibition (%),[1]; [3],20%
